Our source for the GI50, IC (TGI) and CC50 values is US7763615B2, “Ecteinascidin analogs for use as antitumour agents” (priority 2001, dated 2010).

Like-named read-outs stand apart in the source and are kept apart here.

Type in all cases: cell-based
The test system of one test is H-MEC-1. Put plainly: Inhibition of cells growth by colorimetric assay (SRB), H-MEC-1. The conditions noted are these: Homo sapiens, H-MEC-1, 48 hours exposure, SRB; for GI50 / IC (TGI): HMEC-1, 48 h; for CC50: HMEC-1, read-out: LC50 (the source's name). From the text: (§1) The finality of these assays is to interrupt the growth of a “in vitro” tumor cell culture by means of a continued exhibition of the cells to the sample to be testing.
(§2) A colorimetric type of assay, using sulphorhodamine B (SRB) reaction has been adapted for a quantitative measurement of cell growth and viability [following the technique described by Philip Skehan, et al. (1990), New colorimetric cytotoxicity assay for anticancer drug screening, J. Natl. Cancer Inst., 82:1107-1112]
(§3) This form of the assay employs 96 well cell culture microplates of 9 mm diameter (Faircloth, 1988; Mosmann, 1983). Most of the cell lines are obtained from American Type Culture Collection (ATCC) derived from different human cancer types.
(§4) Cells are maintained in RPMI 1640 10% FBS, supplemented with 0.1 g/l penicillin and 0.1 g/l streptomycin sulphate and then incubated at 37° C., 5% CO2 and 98% humidity. For the experiments, cells were harvested from subconfluent cultures using trypsin and resuspended in fresh medium before plating.
(§5) Cells are seeded in 96 well microtiter plates, at 5×10^3 cells per well in aliquots of 195 μl medium, and they are allowed to attach to the plate surface by growing in drug free medium for 18 hours. Afterward, samples are added in aliquots of 5 μl in a ranging from 10 to 10^−8 μg/ml, dissolved in DMSO/EtOH/PBS (0.5:0.5:99). After 48 hours exposure, the antitumor effect are measured by the SRB methodology: cells are fixed by adding 50 μl of cold 50% (wt/vol) trichloroacetic acid (TCA) and incubating for 60 minutes at 4° C. Plates are washed with deionized water and dried. One hundred μl of SRB solution (0.4% wt/vol in 1% acetic acid) is added to each microtiter well and incubated for 10 minutes at room temperature. Unbound SRB is removed by washing with 1% acetic acid. Plates are air dried and bound stain is solubilized with Tris buffer. Optical densities are read on a automated spectrophotometric plate reader at a single wavelength of 490 nm.
(§6) The values for mean+/− SD of data from triplicate wells are calculated. Some parameters for cellular responses can be calculated: GI=growth inhibition, TGI=total growth inhibition (cytostatic effect) and LC=cell killing (cytotoxic effect).

The next test relates to HT29. Put plainly: cells. The note with it: Homo sapiens, HT-29, 48 h.
Description: as §1, §2, §3, §4, §5, §6

The next test deals with A549. Put plainly: cells. The note with it: Homo sapiens, A549, 48 h; for GI50: read-out: GI50; for IC (TGI): read-out: TGI.
Description: as §1, §2, §3, §4, §5, §6

The test system of another test is MCF. Put plainly: cells. The conditions noted are these: Homo sapiens.
Description: as §1, §2, §3, §4, §5, §6

A further test deals with MB231. As to the kind of experiment: cells. The conditions noted are these: Homo sapiens.
Description: as §1, §2, §3, §4, §5, §6

In a further test the test system is SW-620. As to the kind of experiment: cells. The note with it: Homo sapiens.
Description: as §1, §2, §3, §4, §5, §6

Another test has as its system DU145. As to the kind of experiment: cells. The conditions noted are these: Homo sapiens, DU-145, 48 h.
Description: as §1, §2, §3, §4, §5, §6

The next test concerns MEL-28. As to the kind of experiment: cells. The conditions noted are these: Homo sapiens, SK-MEL-28, 48 h.
Description: as §1, §2, §3, §4, §5, §6

Another test has as its system A498. As to the kind of experiment: cells. The conditions noted are these: Homo sapiens.
Description: as §1, §2, §3, §4, §5, §6

[1] abbreviates: HT29, 48 hours exposure, SRB, read-out: LC50 (the source's name).
Setting [2] is: A549, 48 hours exposure, SRB, read-out: LC50 (the source's name).

For orientation: GI50 means the concentration that inhibits growth by half. Consider `CCCCCCCC(=O)Oc1c(C)c2c(c3c1[C@H]1SC[C@]4(NCCc5c4[nH]c4ccccc54)C(=O)COC[C@@H]3N3C1[C@H]1c4c(cc(C)c(OC)c4O)C[C@@H]([C@@H]3C#N)N1C)OCO2` (stereo partly drawn) [Compound 61], for which the GI50 with H-MEC-1 was 394 nM; in the test on HT29 (HT29, 48 hours exposure, SRB) it was 11800 nM; in the test on A549 (A549, 48 hours exposure, SRB) it was 11800 nM. Further, the IC (TGI) in the test on H-MEC-1 was found to be 805 nM; in the test with HT29 (HT29, 48 hours exposure, SRB) it was 11800 nM; with A549 (A549, 48 hours exposure, SRB) it was 11800 nM. Moreover, the CC50 in the test on H-MEC-1 came to 3400 nM; in the test with HT29 (setting [1]), 11800 nM; in the test on A549 (setting [2]), 11800 nM.

For `COc1c(C)cc2c(c1O)[C@@H]1C3[C@@H]4SC[C@]5(NCCc6c5[nH]c5ccccc65)C(=O)COC[C@@H](c5c6c(c(C)c(OC(=O)C(F)(F)C(F)(F)C(F)(F)F)c54)OCO6)N3[C@@H](O)[C@H](C2)N1C` (stereo partly drawn) [Compound 62], the GI50 with HT29 (HT29, 48 hours exposure, SRB) came out at 11 nM; with MCF (MCF, 48 hours exposure, SRB), 2.2 nM; in the test with MB231 (MB231, 48 hours exposure, SRB), 1.1 nM; in the test on SW-620 (SW-620, 48 hours exposure, SRB, read-out: GI50) it was 22 nM; with DU145 (DU145, 48 hours exposure, SRB) it was 2.2 nM; with MEL-28 (MEL-28, 48 hours exposure, SRB), 3.3 nM. In addition, the GI50 came out at 3.3 nM with A498 (A498, 48 hours exposure, SRB) and 8.8 nM in the test on A549 (A549, 48 hours exposure, SRB). Further, the IC (TGI) with HT29 (HT29, 48 hours exposure, SRB) stood at 66 nM; with MCF (MCF, 48 hours exposure, SRB, read-out: TGI) it was 9.9 nM; with MB231 (MB231, 48 hours exposure, SRB, read-out: TGI), 5.5 nM; in the test on SW-620 (SW-620, 48 hours exposure, SRB), 55 nM; in the test with DU145 (DU145, 48 hours exposure, SRB), 4.4 nM; in the test on MEL-28 (MEL-28, 48 hours exposure, SRB), 1.1 nM. Moreover, the IC (TGI) in the test with A498 (A498, 48 hours exposure, SRB) came to 4.4 nM; with A549 (A549, 48 hours exposure, SRB), 33 nM. The CC50 was 99 nM in the test on HT29 (read-out: LC50, HT29, 48 hours exposure, SRB); 110 nM with MCF (48 h, read-out: LC50); 33 nM in the test with MB231 (48 h, read-out: LC50); 110 nM in the test on SW-620 (SW-620, 48 h, read-out: LC50); 9.9 nM in the test on DU145 (read-out: LC50); 33 nM in the test on MEL-28 (read-out: LC50). Further, the CC50 in the test with A498 (A498, 48 h, read-out: LC50) amounted to 11 nM; with A549 (read-out: LC50, A549, 48 hours exposure, SRB), 77 nM.

On to `CCCC(=O)Oc1c(C)c2c(c3c1[C@H]1SC[C@]4(NCCc5c4[nH]c4ccccc54)C(=O)COC[C@@H]3N3C1[C@H]1c4c(cc(C)c(OC)c4O)C[C@@H]([C@@H]3O)N1C)OCO2` (stereo partly drawn) [Compound 63], for which the GI50 was determined as 2.72 nM with H-MEC-1; 3.88 nM in the test with HT29 (HT29, 48 hours exposure, SRB); 3.12 nM in the test with A549 (A549, 48 hours exposure, SRB). In addition, the IC (TGI) with H-MEC-1 was found to be 12.8 nM; in the test on HT29 (HT29, 48 hours exposure, SRB) it was 12.8 nM; with A549 (A549, 48 hours exposure, SRB) it was 9.53 nM. The CC50 in the test with H-MEC-1 amounted to 12800 nM; in the test on HT29 (setting [1]), 12800 nM; in the test on A549 (setting [2]), 3030 nM.

In the case of `C=CCOC(=O)Oc1c(C)c2c(c3c1[C@H]1SC[C@]4(NCCc5c4[nH]c4ccccc54)C(=O)COC[C@@H]3N3C1[C@H]1c4c(cc(C)c(OC)c4O)C[C@@H]([C@@H]3O)N1C)OCO2` (stereo partly drawn) [Compound 64], the GI50 in the test with H-MEC-1 was found to be 0.31 nM; in the test with HT29 (HT29, 48 hours exposure, SRB), 1.91 nM; with A549 (A549, 48 hours exposure, SRB), 1.64 nM. Further, the IC (TGI) was found to be 12.5 nM in the test on H-MEC-1; 12.5 nM in the test with HT29 (HT29, 48 hours exposure, SRB); 6.83 nM in the test on A549 (A549, 48 hours exposure, SRB). The values for the CC50 in the test with H-MEC-1, in the test with HT29 (setting [1]) and with A549 (setting [2]) were 12500 nM, 12500 nM and 110 nM, respectively.

With `COc1c(C)cc2c(c1O)[C@@H]1C3[C@@H]4SC[C@]5(NCCc6c5[nH]c5ccccc65)C(=O)COC[C@@H](c5c6c(c(C)c(OC(=O)OC(C)(C)C)c54)OCO6)N3[C@@H](O)[C@H](C2)N1C` (stereo partly drawn) [Compound 65], the GI50 with H-MEC-1 stood at 0.613 nM; with HT29 (HT29, 48 hours exposure, SRB), 0.856 nM; with A549 (A549, 48 hours exposure, SRB), 2.05 nM. Moreover, the IC (TGI) stood at 43.5 nM with H-MEC-1; 20.5 nM in the test on HT29 (HT29, 48 hours exposure, SRB); 6.3 nM in the test with A549 (A549, 48 hours exposure, SRB). Further, the results for the CC50 in the test with H-MEC-1, in the test on HT29 (setting [1]) and in the test on A549 (setting [2]) were 12300 nM, 12300 nM and 47.9 nM, respectively.

With `COc1c(C)cc2c(c1OC(C)(C)C)[C@@H]1C3[C@@H]4SC[C@]5(NCCc6c5[nH]c5ccccc65)C(=O)COC[C@@H](c5c6c(c(C)c(OC(=O)OC(C)(C)C)c54)OCO6)N3[C@@H](O)[C@H](C2)N1C` (stereo partly drawn) [Compound 66], the GI50 with H-MEC-1 came out at 20.7 nM; in the test on HT29 (HT29, 48 hours exposure, SRB), 28 nM; in the test on A549 (A549, 48 hours exposure, SRB), 20.9 nM. Besides, the IC (TGI) in the test with H-MEC-1 is 80.4 nM; with HT29 (HT29, 48 hours exposure, SRB), 113 nM; in the test on A549 (A549, 48 hours exposure, SRB) it was 57.5 nM. Besides, the CC50 worked out at 11000 nM in the test with H-MEC-1, 11000 nM in the test with HT29 (setting [1]) and 376 nM in the test on A549 (setting [2]).

`C=COC(=O)Oc1c(C)c2c(c3c1[C@H]1SC[C@]4(NCCc5c4[nH]c4ccccc54)C(=O)COC[C@@H]3N3C1[C@H]1c4c(cc(C)c(OC)c4O)C[C@@H]([C@@H]3O)N1C)OCO2` (stereo partly drawn) [Compound 67]: the GI50 turned out to be 0.521 nM in the test with H-MEC-1; 1.9 nM in the test on HT29 (HT29, 48 hours exposure, SRB); 0.455 nM in the test with A549 (A549, 48 hours exposure, SRB). For the same compound, the IC (TGI) with H-MEC-1 came out at 128 nM; in the test with HT29 (HT29, 48 hours exposure, SRB), 128 nM; in the test on A549 (A549, 48 hours exposure, SRB), 2.86 nM. Besides, the figures for the CC50 with H-MEC-1, with HT29 (setting [1]) and with A549 (setting [2]) were 12800 nM, 12800 nM and 128 nM, respectively.
